Assay results taken from publication PMC6934184, “Selective DNA-PKcs inhibition extends the therapeutic index of localized radiotherapy and chemotherapy” (The Journal of Clinical Investigation, 2019).

Biological target: T1, CSNK1G2 (CK1 gamma 2) (Homo sapiens, UniProt P78368)
T1 construct: purchased Thermo Fisher Scientific (Life Technologies) SelectScreen
Experiment: SelectScreen Z'LYTE
Format: biochemical
Summary of the method: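 NU5455 was profiled across the SelectScreen Broad panel of kinase activity and binding assays. Z'LYTE reactions such as CSF1R ran at apparent Km ATP, while the Adapta CAMK1 assay used ATP listed as 10. Values are given as percent.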

T1 sequence (P78368 whole entry): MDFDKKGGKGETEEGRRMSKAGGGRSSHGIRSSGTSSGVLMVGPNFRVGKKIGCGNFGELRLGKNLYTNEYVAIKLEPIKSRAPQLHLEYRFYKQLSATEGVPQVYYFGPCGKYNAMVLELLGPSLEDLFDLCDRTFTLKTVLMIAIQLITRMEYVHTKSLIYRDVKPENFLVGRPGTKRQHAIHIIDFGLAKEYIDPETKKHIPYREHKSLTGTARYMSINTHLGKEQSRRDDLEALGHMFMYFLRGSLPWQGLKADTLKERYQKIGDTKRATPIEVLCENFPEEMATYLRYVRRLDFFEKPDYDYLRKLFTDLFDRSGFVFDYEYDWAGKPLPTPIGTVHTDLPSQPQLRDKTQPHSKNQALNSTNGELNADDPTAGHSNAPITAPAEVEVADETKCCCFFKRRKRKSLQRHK

Structure (SMILES): CN(C(=O)CN1CCOCC1)c1ccc2sc3c(-c4cccc5c(=O)cc(N6CC7CCC(C6)O7)oc45)cccc3c2c1 [NU5455]
- inhibition at 1 µM: -9.3%
